Experiments:
[1] = 101 kPa, Liquid
[2] = xn = mol fraction of the nth substance listed; details: 101 kPa, Liquid
[3] = mn = molality of the nth substance listed, in mol/kg; details: 101 kPa, Liquid

CN(C)C=O [dimethylformamide]
[1]
Details | mass density [kg/m3]
293.15 K | 948.742
298.15 K | 943.976
303.15 K | 939.201
308.15 K | 934.425

CN(C)C=O [dimethylformamide] + O
mass density [kg/m3], [2]
Details | 293.15 K | 298.15 K | 303.15 K | 308.15 K
x2 = 0 | 948.742 | 943.976 | 939.201 | 934.425
x2 = 0.1 | 953.736 | 948.984 | 944.221 | 939.444
x2 = 0.2 | 959.305 | 954.568 | 949.818 | 945.04
x2 = 0.3 | 965.7 | 960.987 | 956.248 | 951.488
x2 = 0.4 | 972.992 | 968.301 | 963.582 | 958.821
x2 = 0.5 | 980.854 | 976.205 | 971.522 | 966.807
x2 = 0.6 | 988.587 | 984.021 | 979.424 | 974.79
x2 = 0.7 | 995.526 | 991.172 | 986.773 | 982.324
x2 = 0.8 | 999.822 | 995.944 | 992.004 | 988.003
x2 = 0.9 | 999.742 | 996.891 | 993.926 | 990.852
x2 = 0.92 | 999.208 | 996.65 | 993.962 | 991.147
x2 = 0.94 | 998.608 | 996.378 | 993.992 | 991.46
x2 = 0.96 | 998.059 | 996.181 | 994.123 | 991.894
x2 = 0.98 | 997.768 | 996.264 | 994.548 | 992.639

NC(N)=O [urea] + CN(C)C=O
mass density [kg/m3], [3]
Details | m1 = 0.02524 | m1 = 0.05973 | m1 = 0.07556 | m1 = 0.1157 | m1 = 0.1479 | m1 = 0.1749 | m1 = 0.2003 | m1 = 0.2305
293.15 K | 949.268 | 949.989 | 950.317 | 951.155 | 951.829 | 952.395 | 952.924 | 953.553
298.15 K | 944.504 | 945.228 | 945.556 | 946.396 | 947.074 | 947.644 | 948.173 | 948.805
303.15 K | 939.731 | 940.469 | 940.781 | 941.642 | 942.307 | 942.893 | 943.423 | 944.061
308.15 K | 934.955 | 935.685 | 936.015 | 936.861 | 937.543 | 938.117 | 938.649 | 939.284

NC(N)=O [urea] + O
mass density [kg/m3], [3]
Details | m1 = 0.02557 | m1 = 0.05326 | m1 = 0.07468 | m1 = 0.09388 | m1 = 0.1236 | m1 = 0.1442 | m1 = 0.1762 | m1 = 0.2005
293.15 K | 998.624 | 999.077 | 999.427 | 999.747 | 1000.23 | 1000.57 | 1001.1 | 1001.5
298.15 K | 997.458 | 997.903 | 998.251 | 998.559 | 999.04 | 999.367 | 999.891 | 1000.28
303.15 K | 996.057 | 996.499 | 996.841 | 997.145 | 997.618 | 997.949 | 998.455 | 998.84
308.15 K | 994.437 | 994.868 | 995.206 | 995.501 | 995.97 | 996.288 | 996.793 | 997.172

Source: the NIST ThermoML archive (doi:10.1021/je300358u)
